In patent publication US20120203161A1, “DEUTERATED WATER AND RIBOFLAVIN SOLUTION FOR EXTENDING SINGLET OXYGEN LIFETIMES IN TREATMENT OF OCULAR TISSUE AND METHOD OF USE” (SEROS MEDICAL, LLC, priority 2009, published 2012):

Tested on: endothelial cell

For `[2H]O[2H]` [deuterated water, deuterium oxide], which endothelial cell apoptosis is on record?
Its endothelial cell apoptosis is “does not induce endothelial cell apoptosis”.
